Laboratory results taken from ChEMBL document CHEMBL5537201, “Discovery of Unique Bis-Substituted Aromatic Amide Derivatives as Novel Highly Potent Antibiotics for Combating Methicillin-Resistant Staphylococcus aureus (MRSA)” (J Med Chem, 2024).
≈ marks a conversion by molar mass, not a printed value. Calls of active or inactive are those of the source. No cut-off for these calls is given here.

Columns and labels:
Staphylococcus hominis [1] = test: Antimicrobial activity against methicillin-resistant Staphylococcus hominis assessed as reduction in bacterial growth incubated for 24 hrs by two-fold broth dilution method; type: functional
Staphylococcus aureus [2] = test: Antimicrobial activity against vancomycin-resistant Staphylococcus aureus assessed as reduction in bacterial growth incubated for 24 hrs by two-fold broth dilution method; type: functional
Cell membrane [3] = test: Disruption of cell membrane integrity in Staphylococcus aureus ATCC6538 assessed as increase in fluorescence intensity measured upto 36 mins ethidium bromide uptake assay; type: cell membranes
Cell membrane [4] = test: Disruption of cell membrane integrity in methicillin resistant Staphylococcus aureus clinical isolate MRS153 assessed as increase in fluorescence intensity measured upto 36 mins ethidium bromide uptake assay; type: cell membranes
Staphylococcus aureus [5] = test: Bactericidal activity against Staphylococcus aureus ATCC6538 at 5 ug/ml measured upto 150 mins; type: functional, organism-based; details: dose 5.0 µg/ml
Streptomyces albus = test: Antimicrobial activity against Streptomyces albus SHBC D11158 assessed as reduction in bacterial growth incubated for 24 hrs by two-fold broth dilution method; type: functional
Staphylococcus hominis [6] = test: Bactericidal activity against multidrug-resistant Staphylococcus hominis at 5 ug/ml measured upto 150 mins; type: functional, organism-based; details: dose 5.0 µg/ml
Staphylococcus aureus [7] = test: Induction of drug resistance in Staphylococcus aureus ATCC6538 assessed as fold change in MIC measured after 10 passages; type: functional
Staphylococcus aureus [8] = test: Bactericidal activity against norfloxacin-resistant Staphylococcus aureus ATCC6538 at 5 ug/ml measured upto 150 mins; type: functional, organism-based; details: dose 5.0 µg/ml
[9] = Cytotoxicity against African green monkey Vero E6 cells assessed as reduction in cell viability measured after 24 hrs by CCK-8 method; type: toxicity, cell-based, Chlorocebus sabaeus, Vero C1008
[10] = Cytotoxicity against human HaCaT cells assessed as reduction in cell viability measured after 24 hrs by CCK-8 method; type: toxicity, cell-based
[11] = Hemolytic activity in rabbit Red blood cell assessed as hemolysis incubated for 1 hr by two-fold microdilution method; type: toxicity, cell-based, Oryctolagus cuniculus, Erythrocyte; details: red blood cells (erythrocytes)
Staphylococcus aureus [12] = test: Antimicrobial activity against methicillin resistant Staphylococcus aureus clinical isolate MRS108 assessed as reduction in bacterial growth incubated for 24 hrs by two-fold broth dilution method; type: functional
Staphylococcus aureus [13] = test: Antimicrobial activity against methicillin resistant Staphylococcus aureus clinical isolate MRS23 assessed as reduction in bacterial growth incubated for 24 hrs by two-fold broth dilution method; type: functional
Staphylococcus aureus [14] = test: Antimicrobial activity against methicillin resistant Staphylococcus aureus clinical isolate MRS97 assessed as reduction in bacterial growth incubated for 24 hrs by two-fold broth dilution method; type: functional
[15] = Selectivity index, ratio of IC50 for African green monkey Vero E6 cells to MIC for Staphylococcus aureus ATCC6538; type: toxicity; details: read-out: Selectivity Index
Staphylococcus aureus [16] = test: Antimicrobial activity against methicillin resistant Staphylococcus aureus clinical isolate MRS207 assessed as reduction in bacterial growth incubated for 24 hrs by two-fold broth dilution method; type: functional
Staphylococcus aureus [17] = test: Antimicrobial activity against methicillin resistant Staphylococcus aureus clinical isolate MRS121 assessed as reduction in bacterial growth incubated for 24 hrs by two-fold broth dilution method; type: functional
Staphylococcus aureus [18] = test: Bactericidal activity against Staphylococcus aureus ATCC6538 assessed as reduction in survival rate at 5 to 10 times MIC measured within 1 hr by colony counting method; type: functional, organism-based
Staphylococcus aureus [19] = test: Antimicrobial activity against methicillin resistant Staphylococcus aureus clinical isolate MRS70 assessed as reduction in bacterial growth incubated for 24 hrs by two-fold broth dilution method; type: functional
A549 = test: Cytotoxicity against human A549 cells assessed as reduction in cell viability measured after 24 hrs by CCK-8 method; type: functional, cell-based; details: A549, 24 h
Staphylococcus aureus [20] = test: Antimicrobial activity against methicillin resistant Staphylococcus aureus clinical isolate MRS153 assessed as reduction in bacterial growth incubated for 24 hrs by two-fold broth dilution method; type: functional
Staphylococcus aureus [21] = test: Induction of drug resistance in Staphylococcus aureus ATCC6538 assessed as change in MIC measured after 10 passages; type: functional
Staphylococcus aureus [22] = test: Antimicrobial activity against methicillin resistant Staphylococcus aureus clinical isolate MRS84 assessed as reduction in bacterial growth incubated for 24 hrs by two-fold broth dilution method; type: functional
Staphylococcus aureus [23] = test: Antimicrobial activity against methicillin resistant Staphylococcus aureus clinical isolate MRS200 assessed as reduction in bacterial growth incubated for 24 hrs by two-fold broth dilution method; type: functional
Staphylococcus aureus [24] = test: Antimicrobial activity against methicillin resistant Staphylococcus aureus clinical isolate MRS273 assessed as reduction in bacterial growth incubated for 24 hrs by two-fold broth dilution method; type: functional
[25] = Selectivity index, ratio of HC50 for rabbit Red blood cell to MIC for Staphylococcus aureus ATCC6538; type: toxicity; details: red blood cells (erythrocytes), read-out: Selectivity Index
HeLa = test: Cytotoxicity against human HeLa cells assessed as reduction in cell viability measured after 24 hrs by CCK-8 method; type: functional, cell-based
Staphylococcus aureus [26] = test: Antimicrobial activity against Staphylococcus aureus N315 assessed as reduction in bacterial growth incubated for 24 hrs by two-fold broth dilution method; type: functional
Staphylococcus aureus [27] = test: Antimicrobial activity against Staphylococcus aureus ATCC6538 assessed as reduction in bacterial growth incubated for 24 hrs by two-fold broth dilution method; type: functional
Staphylococcus aureus [28] = test: Antimicrobial activity against methicillin resistant Staphylococcus aureus clinical isolate MRS1 assessed as reduction in bacterial growth incubated for 24 hrs by two-fold broth dilution method; type: functional
[29] = Cytotoxicity against HEK293 cells assessed as reduction in cell viability measured after 24 hrs by CCK-8 method; type: toxicity, cell-based; details: human
Staphylococcus aureus [30] = test: Antimicrobial activity against methicillin resistant Staphylococcus aureus clinical isolate MRS152 assessed as reduction in bacterial growth incubated for 24 hrs by two-fold broth dilution method; type: functional
Staphylococcus aureus [31] = test: Bactericidal activity against methicillin-resistant Staphylococcus aureus clinical isolate MRS153 at 5 ug/ml measured upto 150 mins; type: functional, organism-based; details: dose 5.0 µg/ml
Staphylococcus aureus [32] = test: Bactericidal activity against methicillin-resistant Staphylococcus aureus clinical isolate MRS97 at 5 ug/ml measured upto 150 mins; type: functional, organism-based; details: dose 5.0 µg/ml
Staphylococcus aureus [33] = test: Bactericidal activity against methicillin-resistant Staphylococcus aureus clinical isolate MRS1 at 5 ug/ml measured upto 150 mins; type: functional, organism-based; details: dose 5.0 µg/ml
Staphylococcus aureus [34] = test: Bactericidal activity against Staphylococcus aureus ATCC6538 assessed as reduction in survival rate at 5 to 10 times MIC measured after 30 to 120 mins by colony counting method relative to control; type: functional; details: time 30-120 min

## CN[C@H](CC(C)C)C(=O)N[C@H]1C(=O)N[C@@H](CC(N)=O)C(=O)N[C@H]2C(=O)N[C@H]3C(=O)N[C@H](C(=O)N[C@H](C(=O)O)c4cc(O)cc(O)c4-c4cc3ccc4O)[C@H](O)c3ccc(c(Cl)c3)Oc3cc2cc(c3O[C@@H]2O[C@H](CO)[C@@H](O)[C@H](O)[C@H]2O[C@H]2C[C@](C)(N)[C@H](O)[C@H](C)O2)Oc2ccc(cc2Cl)[C@H]1O [VANCOMYCIN]
Staphylococcus hominis [1]
  MIC: 1 µg/mL (≈ 0.69 µM)
Staphylococcus aureus [2]
  MIC: ≥ 8 µg/mL
Cell membrane [3]
  Activity: inactive
Cell membrane [4]
  Activity: inactive
Staphylococcus aureus [5]
  Activity: inactive
Streptomyces albus
  MIC: 2 µg/mL (≈ 1.38 µM)
Staphylococcus hominis [6]
  Activity: inactive

## CCn1cc(C(=O)O)c(=O)c2cc(F)c(N3CCNCC3)cc21
Staphylococcus aureus [7]
  fold change (FC): 256
Staphylococcus aureus [5]
  Activity: Active
Staphylococcus aureus [8]
  Activity: inactive

## O=C(CCC(F)(F)F)N(Cc1cc2ccccc2s1)c1cc(-c2cccc(C(F)(F)F)c2)ccc1O
[9]
  IC50 at 24 h: 20.3 µg/mL (≈ 38.8 µM)
Staphylococcus hominis [1]
  MIC: 2 µg/mL (≈ 3.82 µM)
[10]
  IC50 at 24 h: 13 µg/mL (≈ 24.8 µM)
[11]
  HC50 at 1 h: 3280 µg/mL
Staphylococcus aureus [12]
  MIC: 6 µg/mL (≈ 11.5 µM)
Staphylococcus aureus [13]
  MIC: 6 µg/mL (≈ 11.5 µM)
Staphylococcus aureus [14]
  MIC: 3 µg/mL (≈ 5.73 µM)
[15]
  selectivity ratio: 20
Staphylococcus aureus [16]
  MIC: 6 µg/mL (≈ 11.5 µM)
Staphylococcus aureus [17]
  MIC: 3 µg/mL (≈ 5.73 µM)
Staphylococcus aureus [18]
  Activity: Active
Staphylococcus aureus [19]
  MIC: 6 µg/mL (≈ 11.5 µM)
A549
  IC50: 12.5 µg/mL (≈ 23.9 µM)
Staphylococcus aureus [20]
  MIC: 6 µg/mL (≈ 11.5 µM)
Staphylococcus aureus [21]
  Activity: inactive
Staphylococcus aureus [22]
  MIC: 3 µg/mL (≈ 5.73 µM)
Staphylococcus aureus [23]
  MIC: 6 µg/mL (≈ 11.5 µM)
Staphylococcus aureus [24]
  MIC: 3 µg/mL (≈ 5.73 µM)
[25]
  selectivity ratio: > 1000
HeLa
  IC50: 13.4 µg/mL (≈ 25.5 µM)
Staphylococcus aureus [26]
  MIC: 2 µg/mL (≈ 3.82 µM)
Staphylococcus aureus [27]
  MIC: 1 µg/mL (≈ 1.91 µM)
Staphylococcus aureus [28]
  MIC: 3 µg/mL (≈ 5.73 µM)
[29]
  IC50 at 24 h: 12.2 µg/mL (≈ 23.4 µM)
Streptomyces albus
  MIC: 2 µg/mL (≈ 3.82 µM)
Staphylococcus aureus [30]
  MIC: > 16 µg/mL

## COc1cccc(OC)c1C(=O)N[C@@H]1C(=O)N2[C@@H]1SC(C)(C)[C@@H]2C(=O)O [METHICILLIN]
Staphylococcus hominis [1]
  MIC: 2 µg/mL (≈ 5.26 µM)
Staphylococcus aureus [12]
  MIC: 16 µg/mL (≈ 42.1 µM)
Staphylococcus aureus [31]
  Activity: inactive
Staphylococcus aureus [13]
  MIC: 8 µg/mL (≈ 21 µM)
Staphylococcus aureus [14]
  MIC: 8 µg/mL (≈ 21 µM)
Staphylococcus aureus [16]
  MIC: 16 µg/mL (≈ 42.1 µM)
Staphylococcus aureus [17]
  MIC: 8 µg/mL (≈ 21 µM)
Staphylococcus aureus [19]
  MIC: 16 µg/mL (≈ 42.1 µM)
Staphylococcus aureus [20]
  MIC: > 16 µg/mL
Staphylococcus aureus [22]
  MIC: 16 µg/mL (≈ 42.1 µM)
Staphylococcus aureus [23]
  MIC: > 16 µg/mL
Staphylococcus aureus [24]
  MIC: 16 µg/mL (≈ 42.1 µM)
Staphylococcus aureus [32]
  Activity: inactive
Staphylococcus aureus [27]
  MIC: 1 µg/mL (≈ 2.63 µM)
Staphylococcus aureus [28]
  MIC: 16 µg/mL (≈ 42.1 µM)
Staphylococcus aureus [33]
  Activity: inactive
Streptomyces albus
  MIC: 4 µg/mL (≈ 10.5 µM)
Staphylococcus aureus [30]
  MIC: 8 µg/mL (≈ 21 µM)

## O=C(CCC(F)(F)F)N(Cc1cc2ccccc2s1)c1cc(-c2ccccc2)ccc1O
Staphylococcus aureus [34]
  Survival: <1%
[9]
  IC50 at 24 h: 22.9 µg/mL (≈ 50.3 µM)
Staphylococcus hominis [1]
  MIC: 6 µg/mL (≈ 13.2 µM)
[10]
  IC50 at 24 h: > 25 µg/mL
[11]
  HC50 at 1 h: 1770 µg/mL
Staphylococcus aureus [12]
  MIC: 2 µg/mL (≈ 4.39 µM)
Staphylococcus aureus [13]
  MIC: 3 µg/mL (≈ 6.59 µM)
Staphylococcus aureus [14]
  MIC: 2 µg/mL (≈ 4.39 µM)
[15]
  selectivity ratio: 22
Staphylococcus aureus [16]
  MIC: 2 µg/mL (≈ 4.39 µM)
Staphylococcus aureus [17]
  MIC: 3 µg/mL (≈ 6.59 µM)
Staphylococcus aureus [19]
  MIC: 3 µg/mL (≈ 6.59 µM)
A549
  IC50: 10.7 µg/mL (≈ 23.5 µM)
Staphylococcus aureus [20]
  MIC: 3 µg/mL (≈ 6.59 µM)
Staphylococcus aureus [21]
  Activity: inactive
Staphylococcus aureus [22]
  MIC: 2 µg/mL (≈ 4.39 µM)
Staphylococcus aureus [23]
  MIC: 3 µg/mL (≈ 6.59 µM)
Staphylococcus aureus [24]
  MIC: 3 µg/mL (≈ 6.59 µM)
[25]
  selectivity ratio: > 1000
HeLa
  IC50: > 25 µg/mL
Staphylococcus aureus [26]
  MIC: 2 µg/mL (≈ 4.39 µM)
Staphylococcus aureus [27]
  MIC: 1 µg/mL (≈ 2.2 µM)
Staphylococcus aureus [28]
  MIC: 3 µg/mL (≈ 6.59 µM)
[29]
  IC50 at 24 h: 7.8 µg/mL (≈ 17.1 µM)
Streptomyces albus
  MIC: 4 µg/mL (≈ 8.78 µM)
Staphylococcus aureus [30]
  MIC: 2 µg/mL (≈ 4.39 µM)
